The record followed here is paper PMC11808397, “Development of selective nanomolar cyclic peptide ligands as GBA1 enzyme stabilisers” (RSC Chemical Biology, 2025).

Positions of bridges follow the written chain, without caps; N, C: chain ends. Non-standard residues stand in square brackets, D forms with d. Residues, ends and D or L forms follow the SMILES beside them.

Data set [1] concerns the target T1, recombinant human GBA1 (rhGBA1, Cerezyme) (Homo sapiens, UniProt P04062, R534H).
T1 construct: purchased Cerezyme
T1 sequence (P04062 40-536 R534H): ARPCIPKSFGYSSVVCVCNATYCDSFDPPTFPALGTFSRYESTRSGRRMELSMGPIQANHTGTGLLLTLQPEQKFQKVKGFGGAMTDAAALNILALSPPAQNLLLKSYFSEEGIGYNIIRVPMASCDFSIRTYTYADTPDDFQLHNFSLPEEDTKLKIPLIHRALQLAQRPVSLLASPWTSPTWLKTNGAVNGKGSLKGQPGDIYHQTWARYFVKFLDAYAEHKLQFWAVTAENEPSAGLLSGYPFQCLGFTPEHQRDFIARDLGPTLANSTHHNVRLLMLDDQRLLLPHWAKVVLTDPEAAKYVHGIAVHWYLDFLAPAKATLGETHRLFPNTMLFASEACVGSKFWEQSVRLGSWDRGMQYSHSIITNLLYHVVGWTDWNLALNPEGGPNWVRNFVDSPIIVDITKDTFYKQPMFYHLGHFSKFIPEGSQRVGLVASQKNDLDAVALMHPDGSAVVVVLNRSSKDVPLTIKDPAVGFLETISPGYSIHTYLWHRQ
Put plainly: In vitro rhGBA1 inhibition, 4-MU-β-D-glucopyranoside hydrolysis. Particulars: Cerezyme 14 nM, 3.7 mM 4-MU-β-D-glucopyranoside, McIlvaine pH 5.2, 30 min pre-incubation 37 °C + 30 min, mean ± SD from 3 technical triplicates. Type of data set: biochemical. Here is the method: (§1) Based on the pull-down validation, a set of eight cyclic peptides (L1, L2, L4, L6, D1, D8, D12 and D13) were identified, synthesized, and evaluated for their inhibitory potency against recombinant human GBA1 (rhGBA1, Cerezyme®) and their selectivity over human β-glucosidases GBA2 and GBA3. Half-maximum inhibitory concentration (IC50) values for β-glucosidases were determined in vitro by measuring hydrolysis of 4-methylumbelliferyl-β-D-glucopyranoside (4-MU-β-D-Glu) fluorogenic substrate. […]
Pure product fractions were pooled, lyophilized, and dissolved again in DMSO before concentration was determined by A280 using a sample diluted in phosphate buffer at pH 7.4 and extinction coefficients determined from the sequence using the Expasy ProtParam online tool (https://web.expasy.org/protparam/). […]
2.5. In vitro IC50 and Ki measurements
For GBA1, IC50 values were determined using the recombinant human GBA1 (rhGBA1, Cerezyme) following described procedures.4 Enzyme activity was measured using 3.7 mM 4-methylumbeliferone (4MU)-β-D-glucopyranoside in 150 mM McIlvaine buffer pH 5.2 supplemented with 0.1% bovine serum albumin (BSA) (w/v), 0.1% Triton X-100 (v/v), and 0.2% sodium taurocholate (w/v). Varying concentrations of inhibitor (12.5 µL) were incubated with 12.5 µL of enzyme (final concentration 14 nM) at 37 °C for 30 min. Following this, 100 µL of 4MU substrate was added and the samples were again incubated at 37 °C for 30 min. The reaction was quenched using excess 1 M NaOH-glycine (200 µL, pH 10.3) and 4MU fluorescence was measured using a LS55 fluorimeter (λEx 366 nm and λEm 445 […]
30 min at 37 °C (12.5 µL) and subsequently incubated with the tested ligands at a range of concentrations for 30 min at 37 °C (12.5 µL), after which 100 µL 4MU-β-D-glucopyranoside was added for a final incubation of 30 min at 37 °C, quenched with 200 µL 1 M NaOH-glycine (pH 10.3) and fluorescence was measured. IC50 values were calculated using GraphPad Prism version 8.

The next data set addresses T2, GBA2 (Homo sapiens, UniProt Q9HCG7).
T2 construct: expressed in transfected cells
T2 sequence (Q9HCG7 1-927): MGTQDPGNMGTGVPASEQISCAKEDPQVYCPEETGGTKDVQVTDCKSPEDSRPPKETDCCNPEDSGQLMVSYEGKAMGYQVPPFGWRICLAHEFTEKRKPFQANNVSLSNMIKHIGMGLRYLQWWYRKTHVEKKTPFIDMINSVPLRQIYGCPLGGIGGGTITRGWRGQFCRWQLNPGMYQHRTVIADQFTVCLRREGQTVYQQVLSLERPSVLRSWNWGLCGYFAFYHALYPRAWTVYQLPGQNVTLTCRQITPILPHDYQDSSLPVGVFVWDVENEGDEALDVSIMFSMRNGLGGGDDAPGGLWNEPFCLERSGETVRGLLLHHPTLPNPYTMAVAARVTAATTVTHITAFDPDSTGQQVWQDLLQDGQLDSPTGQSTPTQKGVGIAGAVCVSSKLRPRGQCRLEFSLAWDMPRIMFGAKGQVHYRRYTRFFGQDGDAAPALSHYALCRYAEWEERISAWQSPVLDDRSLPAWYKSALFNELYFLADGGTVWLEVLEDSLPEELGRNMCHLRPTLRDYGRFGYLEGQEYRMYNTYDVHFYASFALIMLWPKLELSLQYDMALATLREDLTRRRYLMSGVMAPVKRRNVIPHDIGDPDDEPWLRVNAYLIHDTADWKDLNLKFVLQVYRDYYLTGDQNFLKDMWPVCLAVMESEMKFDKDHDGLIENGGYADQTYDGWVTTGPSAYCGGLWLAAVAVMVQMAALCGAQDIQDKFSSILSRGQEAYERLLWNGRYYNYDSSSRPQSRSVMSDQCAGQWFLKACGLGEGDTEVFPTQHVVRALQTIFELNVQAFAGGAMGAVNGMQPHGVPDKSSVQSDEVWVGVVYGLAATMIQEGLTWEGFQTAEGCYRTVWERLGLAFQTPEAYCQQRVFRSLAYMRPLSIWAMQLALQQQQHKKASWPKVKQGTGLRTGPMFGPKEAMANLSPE
Briefly: GBA2 inhibition in overexpressing HEK293T lysates. It counts as biochemical. Particulars: McIlvaine pH 5.8, 4-MU substrate. The method, then: as §1
2.5. In vitro IC50 and Ki measurements […]
nM) at 37 °C for 30 min. Following this, 100 µL of 4MU substrate was added and the samples were again incubated at 37 °C for 30 min. The reaction was quenched using excess 1 M NaOH-glycine (200 µL, pH 10.3) and 4MU fluorescence was measured using a LS55 fluorimeter (λEx 366 nm and λEm 445 […]
GBA2 and GBA3 IC50 values were determined following a similar protocol,5 using stable GBA2 or GBA3 HEK293T over-expression cell lysates and McIlvaine buffer pH 5.8 with 0.1 % BSA (w/v) and 100 mM HEPES with 0.1 % BSA, respectively. Covalent inhibitor of endogenous GBA1 (1 µM Bodipy green-cyclophellitol β-epoxide activity based probe) was added for both GBA2 and GBA3 assays, and GBA2 inhibitor N-(5-adamantane-1-yl-methoxy-pentyl)-deoxynojirimycin, AMP-DNM at 1 nM) was added for GBA3 assay. Cell lysates were pre-incubated with the aforementioned GBA1/GBA2 inhibitors for 30 min at 37 °C (12.5 µL) and subsequently incubated with the tested ligands at a range of concentrations for 30 min at 37 °C (12.5 µL), after which 100 µL 4MU-β-D-glucopyranoside was added for a final incubation of 30 min at 37 °C, quenched with 200 µL 1 M NaOH-glycine (pH 10.3) and fluorescence was measured. IC50 values were calculated using GraphPad Prism version 8.

Another data set has as its system RAW 264.7 cells. Briefly: In situ competitive activity-based protein profiling (cABPP). It counts as cell-based. Conditions: 0-100 μM for 4 hours, then JJB75 10 nM for 2 hours, fluorescence SDS-gel scanning. The method, then: We further investigated GBA1 inhibition in cells. Human dermal fibroblasts were initially incubated with peptide concentrations ranging from 0.1 μM (from 0.001 μM for L4, D1 and D12) to 100 μM of each cyclic peptide for 3 hours. […] To further confirm the inability of these peptides to cross the cell membrane, we conducted in situ competitive activity-based protein profiling (cABPP) experiments using RAW 264.7 monocyte/macrophage-like cells. […]
Figure S6. […] Cells were washed, lysed and analysed by fluorescent readout. […]
Human fibroblasts (Cambrex-Lonza CC-2511) were cultured in complete DMEM/F12 growth medium supplemented with 10% (v/v) foetal calf serum and 0.1 % (w/v) penicillin/streptomycin at 37 °C and 5% CO2. […] GlcCer and GlcSph lipids were quantified as described below. In parallel, enzyme activity in cell lysates was measured using 3.7 mM 4-methylumbeliferone (4MU)-β-D-glucopyranoside in 150 mM McIlvaine buffer pH 5.2 supplemented with 0.1% bovine serum albumin (BSA) (w/v), 0.1% Triton X-100 (v/v), and 0.2% sodium taurocholate (w/v) as described above (see Table S1). […]
Cells were kept on ice and equal protein amounts were loaded per well on a 10% SDS-PAGE gel. Gels were scanned for fluorescence and then stained with Coomassie Brilliant Blue for loading control. […]
Levels of GlcCer and GlcSph were determined with a modified acidic Bligh & Dyer extraction (Figure 2 […]

Turning to `CC[C@H](C)[C@@H]1NC(=O)[C@H](CC(C)C)NC(=O)[C@H](Cc2ccc(O)cc2)NC(=O)[C@H](C)NC(=O)[C@H](CCC(N)=O)NC(=O)[C@H](CO)NC(=O)[C@H](CCCCN)NC(=O)[C@H]([C@@H](C)O)NC(=O)[C@H](Cc2c[nH]c3ccccc23)NC(=O)[C@H]([C@@H](C)O)NC(=O)[C@H]([C@@H](C)CC)NC(=O)[C@H](C(C)C)NC(=O)[C@H](CCC(N)=O)NC(=O)[C@@H](Cc2ccc(O)cc2)NC(=O)CSC[C@@H](C(N)=O)NC(=O)[C@H](CCC(N)=O)NC1=O` [D13] ({CH2CO}-[dY]QVITWTKSQAYLIQC-NH2; thioether N-16), the “rhGBA1 IC50” value in data set [1] is given as “high micromolar range”. For the same compound, the figures for the IC50 (in data set [1] (SD); at GBA2) were 26.4 ± 3.31 µM and > 100 µM, respectively.

Consider `CC1=CC(C)=[N+]2C1=C(CCCCc1cn(C[C@@H]3[C@@H](O)[C@H](O)[C@@H](O)[C@@H]4O[C@H]34)nn1)c1c(C)cc(C)n1[B-]2(F)F` [MDW933], for which the “competition with ABP JJB75 (cell permeability)” value with RAW 264.7 cells is given as “did show competition”.
